Source: PubChem BioAssay (NCI)
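Briefly, cells in 96-well plates were exposed to five compound concentrations for 48 h, and endpoints were estimated by linear interpolation. TGI is the concentration that stops growth completely.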

Columns and labels:
Test in all cases: inhibition of tumour cell growth, NCI panel, 48 h
SNB-78 CNS = test system: SNB-78 CNS
RXF-631 renal = test system: RXF-631 renal
HOP-18 NSCLC = test system: HOP-18 NSCLC
DMS 114 small cell lung = test system: DMS 114 small cell lung
MDA-N = test system: MDA-N
XF 498 CNS = test system: XF 498 CNS
DLD-1 colon = test system: DLD-1 colon
LXFL 529 NSCLC = test system: LXFL 529 NSCLC
KM20L2 colon = test system: KM20L2 colon

Measured: TGI

NS(=O)(=O)c1ccc(NC(=O)c2cccc3cc4ccccc4nc23)cc1
> 100 µM: all assays above
